Measurements taken from paper PMC8659243, “Design, Synthesis and Tumour-Selective Toxicity of Novel 1-[3-{3,5-Bis(benzylidene)-4-oxo-1-piperidino}-3-oxopropyl]-4-piperidone Oximes and Related Quaternary Ammonium Salts” (Molecules, 2021).
Where a name gives a salt, the structure may show the parent alone.

Legend:
Ca9-22 cells = test: Cytotoxicity against Ca9-22 cells, MTT method, 48 h; assay type: cell-based, human; details: for CC50: Homo sapiens, Ca9-22, concentration required to kill 50% of the cells, 48 h, MTT, read-out: CC50 Ca9-22; for SI Ca9-22: average CC50 towards HGF, HPLF, HPC divided by CC50 against Ca9-22
Protocol: (§1) A literature procedure was followed when the compounds in series 3 and 4 were evaluated against three human oral squamous cell carcinoma cell lines Ca9-22 (RCB-1976), HSC-2 (RCB1945), HSC-4 (RCB1902) (purchased from RIKEN Cell Bank, Tukuba, Japan) and three human normal oral cells, gingival fibroblast (HGF), periodontal ligament fibroblast (HPLF) and pulp cells (HPC) (established according to the guideline of the intramural ethic committee, A0808) except the duration of incubation was increased from 24 h to 48 h. In brief, various concentrations of the compounds were added to the DMEM media, which was supplemented by 10% heat-inactivated fetal bovine serum. Incubation was undertaken at 37 °C. At the completion of the experiment, cell viability was determined by the MTT method.

HSC-2 cells = test: Cytotoxicity against HSC-2 cells, MTT method, 48 h; assay type: cell-based, human; details: for CC50: Homo sapiens, HSC-2, concentration required to kill 50% of the cells, 48 h, MTT; for SI HSC-2: average CC50 towards HGF, HPLF, HPC divided by CC50 against HSC-2
Protocol: as §1

HSC-4 cells = test: Cytotoxicity against HSC-4 cells, MTT method, 48 h; assay type: cell-based, human; details: for CC50: Homo sapiens, HSC-4, concentration required to kill 50% of the cells, 48 h, MTT, read-out: CC50 HSC-4; for SI HSC-4: average CC50 towards HGF, HPLF, HPC divided by CC50 against HSC-4
Protocol: as §1

[1] = system: Ca9-22, HSC-2 and HSC-4 cells; test: Average over Ca9-22, HSC-2 and HSC-4 neoplastic cells; assay type: cell-based, human; details: for CC50: Homo sapiens, average of Ca9-22, HSC-2 and HSC-4, read-out: Average CC50; for Average SI: average of SI for Ca9-22, HSC-2 and HSC-4
Protocol: In order to assess whether the compounds in series 3 and 4 are more toxic to neoplasms than non-malignant cells, selective index (SI) figures were calculated. In the in vivo situation, a tumour is surrounded by a number of non-malignant cells.
In order to identify the most promising lead compounds in terms of both cytotoxic potencies and favourable SI values, potency–selectivity expression (PSE) values were computed. […] Outstanding results may be noted for four compounds that have PSE values in excess of 100,000 namely 3d, 4c–e. […] However, the relative SI/PSE distribution patterns between series 3 and 4 (from a to h) are nearly superimposable with each other (Figure 3). […] It has been reported that 3,5-bis(3-iodo-5-methoxy-4-propoxybenzylidene)-N-acetylpiperidin-4-one inhibited tubulin and destabilization of microtubules, while 3,5-bis(3,4,5-trimethoxybenzylidene)-N-benzoylpiperidin-4-one destabilizes the microtubules. Thus, it remained to investigate whether compound 4d acts as an inhibitor of the microtubule.
as §1

[2] = Cytotoxicity against non-malignant HGF cells, MTT method, 48 h; assay type: cell-based; details: human, gingival fibroblasts (HGF)
Protocol: as §1

[3] = Cytotoxicity against non-malignant HPLF cells, MTT method, 48 h; assay type: cell-based; details: human, periodontal ligament fibroblasts (HPLF)
Protocol: as §1

[4] = Cytotoxicity against non-malignant HPC cells, MTT method, 48 h; assay type: cell-based; details: human, pulp cells (HPC)
Protocol: as §1

[5] = Average over HGF, HPLF and HPC non-malignant cells; assay type: cell-based; details: human, HPLF and HPC non-malignant cells (average of the three)
Protocol: as §1

[6] = system: CEM T-lymphoblastic leukemia cells; test: Cytotoxicity against CEM cells, MTT method, 24 h; assay type: cell-based; details: Homo sapiens, CCRF-CEM, concentration required to inhibit cell growth by 50%
Protocol: The method used for the evaluation of various compounds against human CEM cells has been reported previously. In brief, cells were grown in RPMI-1640 medium supplemented with 10% heat-inactivated fetal bovine serum. Different concentrations of compounds were added to the media, and after 24 h incubation, cytotoxicity was measured by the MTT method.

HL-60 (TB) cells = test: NCI in vitro screen, leukemia HL-60 (TB); assay type: cell-based; details: Homo sapiens
From the text: (§2) In view of the encouraging result with CEM leukemic cells, consideration was given to an assessment in the NCI in vitro screening program. The oximes, but not the quaternary ammonium salts, were accepted for bioevaluation. Examination of the mean graphs confirms the sensitivity of leukemic cells to these compounds.

K-562 cells = test: NCI in vitro screen, leukemia K-562; assay type: cell-based; details: Homo sapiens, K562
From the text: as §2

Molt-4 cells = test: NCI in vitro screen, leukemia Molt-4; assay type: cell-based; details: Homo sapiens
From the text: as §2

RPMI-8226 cells = test: NCI in vitro screen, leukemia RPMI-8226; assay type: cell-based; details: Homo sapiens
From the text: as §2

SR cells = test: NCI in vitro screen, leukemia SR; assay type: cell-based; details: Homo sapiens
From the text: as §2

leukemia cells = test: NCI in vitro screen, average of leukemia cells; assay type: cell-based; details: Homo sapiens
From the text: as §2

All Cell Lines = test: NCI in vitro screen, all cell lines; assay type: cell-based; details: Homo sapiens
From the text: (§3) One particular reference drug is 5-fluorouracil, which is used in treating colon cancers.

Colo205 cells = test: NCI in vitro screen, colon cancer Colo205; assay type: cell-based; details: Homo sapiens, COLO 205
From the text: as §3

HCC-2998 cells = test: NCI in vitro screen, colon cancer HCC-2998; assay type: cell-based; details: Homo sapiens
From the text: as §3

HCT-116 cells = test: NCI in vitro screen, colon cancer HCT-116; assay type: cell-based; details: Homo sapiens
From the text: as §3

HCT-15 cells = test: NCI in vitro screen, colon cancer HCT-15; assay type: cell-based; details: Homo sapiens
From the text: as §3

HT29 cells = test: NCI in vitro screen, colon cancer HT29; assay type: cell-based; details: Homo sapiens, HT-29
From the text: as §3

KM12 cells = test: NCI in vitro screen, colon cancer KM12; assay type: cell-based; details: Homo sapiens
From the text: as §3

SW-620 cells = test: NCI in vitro screen, colon cancer SW-620; assay type: cell-based; details: Homo sapiens
From the text: as §3

colon cancer cells = test: NCI in vitro screen, average of colon cancer cells; assay type: cell-based; details: Homo sapiens
From the text: as §3

[7] = Stability by 1H NMR in 9:1 deuterated dimethylsulfoxide and deuterium oxide; assay type: physicochemical; details: 37 °C

| Compound | CC50 (Ca9-22 cells) [nM] | SI Ca9-22 (Ca9-22 cells) | CC50 (HSC-2 cells) [nM] | SI HSC-2 (HSC-2 cells) | CC50 (HSC-4 cells) [nM] | SI HSC-4 (HSC-4 cells) | CC50 [1] [nM] | Average SI [1] | CC50 at 48 h [2] [nM] | CC50 at 48 h [3] [nM] | CC50 at 48 h [4] [nM] | CC50 at 48 h [5] [nM] | IC50 [6] [nM] | IC50 (HL-60 (TB) cells) [nM] | IC50 (K-562 cells) [nM] | IC50 (Molt-4 cells) [nM] | IC50 (RPMI-8226 cells) [nM] | IC50 (SR cells) [nM] | IC50 (leukemia cells) [nM] | IC50 (All Cell Lines) [nM] | further results |
| --- | --- | --- | --- | --- | --- | --- | --- | --- | --- | --- | --- | --- | --- | --- | --- | --- | --- | --- | --- | --- | --- |
| O=C1/C(=C/c2ccccc2)CN(C(=O)CCN2CCC(=NO)CC2)C/C1=C\c1ccccc1 (as salt: hydrochloride) [Compound 3a, (3~{E},5~{E})-3,5-bis-benzylidine-1-[3-(4-hydroximino-1-piperidyl)propanoyl]piperidin-4-one hydrochloride] |  |  |  |  |  |  |  |  |  |  |  |  |  |  |  |  |  |  |  |  | melting point: 172.3 °C |
| O=C1/C(=C/c2ccccc2)CN(C(=O)CCN2CCC(=NO)CC2)C/C1=C\c1ccccc1 [Compound 3a, (3~{E},5~{E})-3,5-bis-benzylidine-1-[3-(4-hydroximino-1-piperidyl)propanoyl]piperidin-4-one hydrochloride] | 650 ± 70 | 16.9 | 890 ± 60 | 12.4 | 440 ± 160 | 25.0 | 660 | 18.1 | 7110 ± 470 | 14300 ± 3790 | 11500 ± 2570 | 11000 | 5390 ± 260 | 2600 | 400 | 690 | 320 | 330 | 850 | 1510 | IC50 (Colo205 cells): 1700 nM; IC50 (HCC-2998 cells): 1740 nM; IC50 (HCT-116 cells): 680 nM; IC50 (HCT-15 cells): 1380 nM; IC50 (HT29 cells): 1200 nM; IC50 (KM12 cells): 660 nM; IC50 (SW-620 cells): 320 nM; IC50 (colon cancer cells): 1100 nM; stability: 1H NMR spectra in dissolution and after 48 h incubation [7]: identical |
| O=C1/C(=C/c2ccc([N+](=O)[O-])cc2)CN(C(=O)CCN2CCC(=NO)CC2)C/C1=C\c1ccc([N+](=O)[O-])cc1 [Compound 3e, (3~{E},5~{E})-1-[3-(4-hydroximino-1-piperidyl)propanoyl]-3,5-bis[(4-nitrophenyl)methylene]piperidin-4-one] | 30 | 109 | 120 ± 90 | 27.3 | 90 ± 20 | 36.3 | 80 | 57.5 | 1670 ± 310 | 3060 ± 160 | 5070 ± 210 | 3270 | 11600 ± 310 | 1550 | 280 | 400 | 300 | 100 | 500 | 1790 | IC50 (Colo205 cells): 400 nM; IC50 (HCC-2998 cells): 1170 nM; IC50 (HCT-116 cells): 490 nM; IC50 (HCT-15 cells): 360 nM; IC50 (HT29 cells): 330 nM; IC50 (KM12 cells): 290 nM; IC50 (SW-620 cells): 200 nM; IC50 (colon cancer cells): 460 nM |
| Cc1ccc(/C=C2\CN(C(=O)CCN3CCC(=NO)CC3)C/C(=C\c3ccc(C)cc3)C2=O)cc1 [Compound 3f, (3~{E},5~{E})-3,5-bis[(4-methylphenyl)methylene]-1-[3-(4-hydroximino-1-piperidyl)propanoyl]piperidin-4-one hydrochloride] | 470 ± 40 | 15.3 | 750 ± 40 | 9.57 | 430 ± 120 | 16.7 | 550 | 13.9 | 5700 ± 650 | 8000 ± 200 | 7850 ± 7100 | 7180 | 8420 ± 1100 | 1700 | 320 | 370 | 300 | 310 | 550 | 1230 | IC50 (Colo205 cells): 1150 nM; IC50 (HCC-2998 cells): 1580 nM; IC50 (HCT-116 cells): 360 nM; IC50 (HCT-15 cells): 550 nM; IC50 (HT29 cells): 350 nM; IC50 (KM12 cells): 280 nM; IC50 (SW-620 cells): 290 nM; IC50 (colon cancer cells): 650 nM |
| COc1ccc(/C=C2\CN(C(=O)CCN3CCC(=NO)CC3)C/C(=C\c3ccc(OC)cc3)C2=O)cc1 [Compound 3g, (3~{E},5~{E})-3,5-bis[(4-methoxyphenyl)methylene]-1-[3-(4-hydroximino-1-piperidyl)propanoyl]piperidin-4-one hydrochloride] | 590 ± 60 | 18.3 | 1560 ± 550 | 6.92 | 650 ± 20 | 16.6 | 930 | 13.9 | 6630 ± 60 | 12100 ± 1790 | 13600 ± 600 | 10800 | 4350 ± 200 | 2820 | 1200 | 2950 | 650 | 620 | 1880 | 1280 | IC50 (Colo205 cells): 2040 nM; IC50 (HCC-2998 cells): 1860 nM; IC50 (HCT-116 cells): 1740 nM; IC50 (HCT-15 cells): 2140 nM; IC50 (HT29 cells): 2040 nM; IC50 (KM12 cells): 1740 nM; IC50 (SW-620 cells): 1380 nM; IC50 (colon cancer cells): 1840 nM |
| COc1cc(/C=C2\CN(C(=O)CCN3CCC(=NO)CC3)C/C(=C\c3cc(OC)c(OC)c(OC)c3)C2=O)cc(OC)c1OC [Compound 3h, (3~{E},5~{E})-1-[3-(4-hydroximino-1-piperidyl)propanoyl]-3,5-bis[(3,4,5-trimethoxyphenyl)methylene]piperidin-4-one] | 70 ± 30 | 43.9 | 230 ± 20 | 13.4 | 300 ± 150 | 10.2 | 200 | 22.5 | 2180 ± 230 | 5220 ± 690 | 1800 ± 600 | 3070 | 2310 ± 300 | 270 | 320 | 290 | 320 | 300 | 300 | 1220 | IC50 (Colo205 cells): 260 nM; IC50 (HCC-2998 cells): 210 nM; IC50 (HCT-116 cells): 210 nM; IC50 (HCT-15 cells): 1230 nM; IC50 (HT29 cells): 330 nM; IC50 (KM12 cells): 200 nM; IC50 (SW-620 cells): 300 nM; IC50 (colon cancer cells): 390 nM |
| C[N+]1(CCC(=O)N2C/C(=C\c3ccccc3)C(=O)/C(=C/c3ccccc3)C2)CCC(=NO)CC1 (stereo not shown) [Compound 4a, (3~{E},5~{E})-3,5-bis-benzylidine-1-[3-(4-hydroximino-1-piperidyl)propanoyl]piperidin-4-one methiodide] | 560 ± 10 | 30.4 | 1450 ± 160 | 11.7 | 580 ± 40 | 29.3 | 860 | 23.8 | 9650 ± 1230 | 24600 ± 1100 | 16800 ± 680 | 17000 | 7620 ± 1440 |  |  |  |  |  |  |  | stability: 1H NMR spectra in dissolution and after 48 h incubation [7]: identical; melting point: 173 °C |
